Source: patent US20080069809A1, “Compositions and methods for the diagnosis and treatment of cancer” (priority 2006, published 2008)

What was measured:
Type in all cases: cell-based
HL60 [1] = test: Apoptosis (sub-G1 DNA by FACS, caspase-3 activation) in HL60 leukemic cells
Method: The myeloid leukemic cell lines HL60, NB60, NB4, U937, K562 and KG1a were all grown in RPMI 1640 medium (Life Technologies, Paisley, United Kingdom) supplemented with 10% v/v fetal calf serum (Sear Laboratories International Crawley, United Kingdom), 100 U/mL penicillin, and 100 μg/mL streptomycin (Sigma Aldrich, Poole, United Kingdom) at 37° C. and 5% v/v CO2. AML blasts were isolated from patient bone marrow aspirates and peripheral blood of eight patients at diagnosis or relapse. Patients were not receiving AML therapy at time of sampling. Blasts were isolated by Ficoll density centrifugation and were cultured in serum-free insulin transferrin selenium-positive (ITS+) medium (Life Technologies) containing 300 ng/mL stem cell factor (SCF) and 10 ng/mL interleukin 3 (IL3; R and D Systems, Abingdon, United Kingdom) and antibiotics. […] Normal myeloblasts were isolated from cord blood or adult mobilized peripheral blood. Briefly, CD34^+ cells were indirectly selected from the mononuclear cell preparations using antibody-coated magnetic beads (Miltenyi Biotec, United Kingdom).
To determine the effects of ingenol-3-angelate (PEP005), cells were incubated for up to 5 days with medium alone or PEP005 at a range of concentrations from 0.2 nM to 20 μM. PEP005 was extracted from Euphorbia peplus and supplied as a 98.5% pure preparation by Peplin Limited (Brisbane, Australia) as a dry pellet and was made up to a stock of […] in acetone on a weekly basis. Stocks were stored at 4° C. and diluted into medium when required. Final acetone concentration was never more than 0.1% v/v. Apoptosis and differentiation were assessed after 1 to 5 days.

PKC-δ = molecular target: T1, PKC-δ (Homo sapiens, UniProt Q05655); test: PKC-δ activation by translocation (cell fractionation, Western blotting) in HL60 cells; details: 20 nM PEP005 or 20 nM PMA, 10 minutes
T1 construct: endogenous in cells; host or cells: HL60
Method: PKC translocates from the soluble to the particulate fraction of cells when activated and this method was used to assess activation of PKC-δ by PEP005 and PMA. Briefly, cells were incubated for 10 minutes in medium alone or 20 nM PEP005 or 20 nM PMA, washed twice in phosphate buffered saline (PBS) and then lysed by homogenization in hypotonic lysis buffer in the absence of detergent. Lysis was checked using trypan blue uptake. Nuclei were isolated by centrifugation at 1000 g for 10 minutes. Centrifugation at 100,000 g for 45 minutes at 4° C. was used to isolate the cytosol (supernatant) and cell membrane (pellet) fractions. All were taken up in SDS sample buffer and analyzed for PKC-δ by Western blotting.

HL60 [2] = test: Phagocytosis of complement-coated yeast by HL60 cells; details: after 3 days of treatment, PMA 20 nM
Method: Cell differentiation was determined by staining of cells with anti-CD11b antibody as a general early marker of myeloid differentiation. In studies with HL60 cells, PEP005-treated and 20 nM phorbol myristate (PMA)-treated (Sigma Aldrich) cells were also assessed for their ability to phagocytose complement-coated yeast, a marker of a fully differentiated myeloid cell, as previously described (Toksoz et al, Leukemia Res 6:491-498, 1982). The ingestion of three or more yeasts was taken as a positive result. In normal cord blood or adult bone marrow myeloblasts, loss of CD34 was taken as a marker of differentiation. Isotype-matched controls were used and all antibodies were from DAKO (Cambridge, United Kingdom). […] Cells were also used to prepare cytospins, which were then differentially stained using a commercial May-Grünwald-Ginesa stain (Diff-Kwik; Gamidor, Abingdon, United Kingdom) to identify cells with a blast or differentiated or apoptotic morphology. Slides were examined using a Zeiss III RS brightfield microscope equipped with a 40×/0.75 water-immersion objective (Carl Zeiss, Jena, Germany). Images were captured with a SPOT2 cameria (Diagnostic Instructions, Sterling Heights, Mich.) and analyzed using Image-Pro 4.0 software (Media Cybernetics, Silver Spring, Md.).

KG1a = test: Differentiation (CD11b expression) in KG1a cells; details: agent alone
Method: The myeloid leukemic cell lines HL60, NB60, NB4, U937, K562 and KG1a were all grown in RPMI 1640 medium (Life Technologies, Paisley, United Kingdom) supplemented with 10% v/v fetal calf serum (Sear Laboratories International Crawley, United Kingdom), 100 U/mL penicillin, and 100 μg/mL streptomycin (Sigma Aldrich, Poole, United Kingdom) at 37° C. and 5% v/v CO2. AML blasts were isolated from patient bone marrow aspirates and peripheral blood of eight patients at diagnosis or relapse. Patients were not receiving AML therapy at time of sampling. Blasts were isolated by Ficoll density centrifugation and were cultured in serum-free insulin transferrin selenium-positive (ITS+) medium (Life Technologies) containing 300 ng/mL stem cell factor (SCF) and 10 ng/mL interleukin 3 (IL3; R and D Systems, Abingdon, United Kingdom) and antibiotics. Blast purity ranged from 80% to 95%, as assessed by expression of CD34. Normal myeloblasts were isolated from cord blood or adult mobilized peripheral blood. Briefly, CD34^+ cells were indirectly selected from the mononuclear cell preparations using antibody-coated magnetic beads (Miltenyi Biotec, United Kingdom).
Cell differentiation was determined by staining of cells with anti-CD11b antibody as a general early marker of myeloid differentiation. In studies with HL60 cells, PEP005-treated and 20 nM phorbol myristate (PMA)-treated (Sigma Aldrich) cells were also assessed for their ability to phagocytose complement-coated yeast, a marker of a fully differentiated myeloid cell, as previously described (Toksoz et al, Leukemia Res 6:491-498, 1982). The ingestion of three or more yeasts was taken as a positive result. In normal cord blood or adult bone marrow myeloblasts, loss of CD34 was taken as a marker of differentiation. Isotype-matched controls were used and all antibodies were from DAKO (Cambridge, United Kingdom). […] Images were captured with a SPOT2 cameria (Diagnostic Instructions, Sterling Heights, Mich.) and analyzed using Image-Pro 4.0 software (Media Cybernetics, Silver Spring, Md.).

caspase-3 = test: Caspase-3 phosphorylation in 32PO4-labeled HL60 cells; details: 20 nM PEP005 and 5 μM rottlerin
Method: To determine if PEP005 induced caspase-3 phosphorylation, HL60 cells were incubated with 1.5×10^7 Bq/mL ^32PO4 (Amersham Pharmacia) in phosphate-free medium for 3 hours prior to addition of 20 nM PEP005 or PEP005 and 5 μM rottlerin (Calbiochem, Nottingham, United Kingdom). Cells were then lysed and caspase-3 was immunoprecipitated with an anti-caspase-3 antibody (BD Pharmingen, Oxford, United Kingdom) or an irrelevant isotype-matched control antibody (DAKO) and the immunoprecipitate was isolated using an anti-mouse immunoglobulin G (IgG) antibody (DAKO) and protein G-coated magnetic beads (microbeads; Miltenyi Biotech). The isolate was taken up in SDS sample buffer and run on a 10% w/v SDS-polyacrylamide gel electrophoresis (PAGE) gel and the labeled proteins were visualized using a phosphorimager.

T1 sequence (Q05655 whole entry): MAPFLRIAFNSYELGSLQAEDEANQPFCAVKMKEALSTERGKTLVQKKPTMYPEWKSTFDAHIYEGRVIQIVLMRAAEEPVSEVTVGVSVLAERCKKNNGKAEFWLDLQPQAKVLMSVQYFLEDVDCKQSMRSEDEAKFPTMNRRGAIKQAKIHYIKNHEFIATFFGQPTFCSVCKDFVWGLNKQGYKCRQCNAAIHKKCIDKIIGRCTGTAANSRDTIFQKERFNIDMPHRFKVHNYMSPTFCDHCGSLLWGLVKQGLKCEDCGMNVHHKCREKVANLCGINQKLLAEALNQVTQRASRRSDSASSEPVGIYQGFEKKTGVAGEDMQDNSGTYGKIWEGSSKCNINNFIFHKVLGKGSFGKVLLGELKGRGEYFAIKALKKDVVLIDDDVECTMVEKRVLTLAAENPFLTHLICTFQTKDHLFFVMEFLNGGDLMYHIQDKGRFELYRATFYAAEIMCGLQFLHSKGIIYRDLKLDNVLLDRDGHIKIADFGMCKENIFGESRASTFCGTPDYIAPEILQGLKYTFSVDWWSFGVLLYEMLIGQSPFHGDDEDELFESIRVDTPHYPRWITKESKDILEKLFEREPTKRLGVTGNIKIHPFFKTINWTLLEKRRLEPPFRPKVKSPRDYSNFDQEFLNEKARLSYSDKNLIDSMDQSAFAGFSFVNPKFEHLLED

With `CN(C)CCCn1cc(C2=C(c3c[nH]c4ccccc34)C(=O)NC2=O)c2ccccc21` [bisindolylmaleimide I, reference compound] the “inhibition of PEP005-induced apoptosis (caspase-3 activation)” value (HL60 [1]; 20 nM PEP005 with 1 μM Bis-1 or 20 nM Go6976) was “inhibited”.

With `CCCCCCCCCCCCCC(=O)O[C@@H]1[C@@H](C)[C@@]2(O)[C@@H](C=C(CO)C[C@]3(O)C(=O)C(C)=C[C@@H]23)[C@@H]2C(C)(C)[C@]12OC(C)=O` [PMA, phorbol myristate, reference compound] the “apoptosis (caspase-3 activity)” value (HL60 [1]; after 3 days of treatment, PMA 20 nM) was “no increase in apoptosis”, the “site of initial PKC-δ translocation” value (PKC-δ) was “only to the cell membrane” and the “differentiation to phagocytes (ability to phagocytose yeast)” value (HL60 [2]) was “induced differentiation of HL60 cells toward phagocytes”.

With `CC1=C(/C=C/C(C)=C/C=C/C(C)=C/C(=O)O)C(C)(C)CCC1` [ATRA, all-trans retinoic acid, reference compound] the differentiation response (KG1a) was “did not respond”.

With `CC(=O)c1c(O)c(C)c(O)c(Cc2c(O)c3c(c(C(=O)/C=C/c4ccccc4)c2O)OC(C)(C)C=C3)c1O` [rottlerin, reference compound] the “effect on PEP005-induced caspase-3 phosphorylation” value (caspase-3) was “ablated”.
